This passage reports TGI and GI50 results from PubChem BioAssay (NCI).

What all share (assay): inhibition of tumour cell growth, NCI panel, 48 h
For test [1], the system named is OVCAR-3 ovarian.
Test [2] concerns NCI-H226 lung.
Test [3] relates to SNB-78 CNS.
The subject of test [4] is RPMI-8226 leukemia.
Test [5] relates to SF-539 CNS.
Test [6] relates to SW-620 colon.
The subject of test [7] is DMS 114 small cell lung.
For test [8], the system named is DMS 273 small cell lung.
In test [9] the test system is SK-MEL-2 melanoma.
The test system of test [10] is M19-MEL melanoma.
Test [11] has as its system LOX IMVI melanoma.
Test [12] relates to NCI/ADR-RES ovarian.

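Five concentrations, 48 hours, 96-well plates. At the GI50, growth is halved. TGI denotes the concentration required for complete inhibition of growth.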

For the compound `Oc1cccc(C2SCc3nc4ccccc4n32)c1` (stereo not given), the TGI in [1], in test [2], in [3], in [4], in test [5] and in [6] was over 100 µM each time. Also, the TGI in test [7], in test [8] and in [9] was over 100 µM each time.

As to `COc1cc(C2C(C(=O)O)=C(C)Oc3cc4c(cc32)OCO4)cc(OC)c1OC` (stereo not given), the TGI in test [1] is 48.1 µM; in test [3], over 100 µM; in test [6], over 100 µM; in test [7], 50.6 µM; in [10], over 100 µM; in test [11], over 100 µM. Further, in test [8], the TGI is over 100 µM.

As for `Fc1cccc(F)c1C1SCc2nc3ccccc3n21` (stereo not given), the TGI in [1], in [2], in [3], in [4], in [5] and in [6] was over 100 µM in each case. For the same compound, the TGI in test [10], in test [11], in [8] and in [9] was over 100 µM in each case.

With `COc1cc2c(cc1OC)-c1c(cc(OC)c(OC)c1OC)C2=O`, the TGI in [1], in test [2], in test [4], in [5], in test [6] and in test [7] was over 100 µM throughout. The TGI in [10] and in test [11] was over 100 µM in each case.

Take `COC(=O)C1CCc2c(OC)ccc(OC)c2C1=O` (stereo not given): the TGI in [1], in test [3], in test [4], in test [5], in test [6] and in test [7] was over 100 µM each time. Besides, the TGI in test [10], in [11], in test [8] and in test [9] was over 100 µM in each case.

`Cc1ccc(NC(=O)SCCC(=O)O)cc1NC(=O)SCCC(=O)O`: the TGI in test [1], in test [2], in [3], in test [4], in test [5] and in [6] was over 100 µM in each case. For the same compound, the TGI is over 100 µM in [7], over 100 µM in test [11], over 10 µM in test [8] and over 100 µM in test [9].

On to `NC(=O)c1c(OCc2c(F)cc(Br)cc2F)nsc1NC(=O)NCCCCN1CCCC1`, for which the GI50 is 1810 nM in [1]; 0.453 µM in [2]; 2400 nM in test [4]; 1380 nM in test [5]; 5820 nM in [12]; 3030 nM in [6]. For the same compound, the GI50 in test [11] was 1160 nM; in test [9] it was over 10000 nM. The TGI was 4.52 µM in test [1]; over 10 µM in test [2]; 6 µM in test [4]; 2.92 µM in [5]; over 10 µM in test [12]; over 10 µM in test [6]. Moreover, the TGI in test [11] is 2.5 µM; in test [9], over 10 µM.

Consider `COC1OC(C)C(OC(=O)C(C)(C)C)C(C)(O)C1O` (stereo not given), for which the TGI in test [1], in test [3], in test [4], in test [5], in [6] and in test [10] was over 100 µM in each case. In addition, the TGI in test [11] and in [8] was over 100 µM in each case.

As to `CS(=O)(=O)c1ccc(C(F)(F)F)cc1NC(=O)Nc1cnc(Oc2ccc(-c3cc(Cl)cnc3N)cc2)nc1`, the GI50 is 2080 nM in test [1]; 2.75 µM in test [2]; 2330 nM in test [4]; 1940 nM in test [5]; 2920 nM in [12]; 3240 nM in [6]. Moreover, the GI50 in test [11] was 1620 nM; in test [9], 2340 nM. Also, the TGI was 4.67 µM in test [1]; 26.3 µM in test [2]; 6.53 µM in test [4]; 4.96 µM in test [5]; over 31 µM in test [12]; 16.8 µM in test [6]. Moreover, the figures for the TGI in test [11] and in test [9] were 3.05 µM and 5.03 µM, respectively.

Regarding `NC(C(=O)O)C(N)C(=O)O` (stereo not given), the TGI in test [1], in [2], in [4], in test [5], in test [12] and in test [6] was over 100 µM throughout. In addition, the TGI in test [11] and in [9] was over 100 µM throughout.

As to `N#Cc1ccc(-n2cnc(NC(=O)[C@H]3CCN(C#N)C3)c2)cc1`, the TGI in test [1] is 4.84 µM; in test [2] it was 9.85 µM; in test [4], 7.46 µM; in [5], 5.95 µM; in test [12], over 86.8 µM; in [6], 26.4 µM. Also, the TGI in [11] is over 100 µM; in test [9], 4.09 µM. Besides, the GI50 was 2.51 µM in test [2]; 1710 nM in [4]; 1180 nM in test [5]; 2410 nM in [12]; 1460 nM in test [6]; 1270 nM in test [11]. In addition, the GI50 in [9] was 935 nM.

As for `CC(=O)O[C@H]1CCC2[C@@H]3CCC4C(=O)c5oncc5C[C@]4(C)C3CC[C@@]21C` (stereo not given in full), the TGI in test [1], in [3], in test [4], in [6], in test [7] and in [10] was over 100 µM in each case. Also, the TGI in test [11], in test [8] and in test [9] was over 100 µM in each case.

For `Cc1cc(N2CCN(C)CC2)nc(NC2CCCC(Nc3ccnc4cc(Cl)ccc34)C2)n1` (stereo not given), the GI50 in [1] is 2250 nM; in test [2] it was 3.01 µM; in test [4] it was 1680 nM; in test [5] it was 1680 nM; in [12], 3340 nM; in test [6], 2480 nM. In addition, the GI50 in [11] was 1770 nM; in test [9] it was 1990 nM. Further, the TGI worked out at 5.75 µM in [1]; 10.3 µM in [2]; 4.95 µM in [4]; 3.31 µM in [5]; 13.3 µM in [12]; 10.8 µM in [6]. The TGI is 3.53 µM in [11] and 4.38 µM in [9].

Consider `CCOC(=O)c1cc(C(=O)c2cc(OC)cc(OC)c2)n2ncccc12`, for which the GI50 in [1] was 402 nM; in test [2], over 100 µM; in test [4] it was 1820 nM; in test [5], 1850 nM; in test [12], 463 nM; in [6], 518 nM. In addition, the GI50 in [11] is 804 nM; in test [9], 738 nM. The TGI in test [1] was over 100 µM; in [2] it was over 100 µM; in [4], over 100 µM; in test [5] it was 40.2 µM; in test [12] it was 61.1 µM; in test [6], over 100 µM. The TGI in test [11] and in [9] was over 100 µM in each case.

Take `COC(=O)c1c2c(c(C)[n+]([O-])c1C)C(=O)C(NCc1ccc(F)c(Cl)c1)=CC2=O`: the GI50 in test [1] was 306 nM; in test [2], 2.98 µM; in test [4], 3080 nM; in [5] it was 1690 nM; in test [12] it was 2080 nM; in test [6] it was 2210 nM. In addition, the GI50 in [11] was 2340 nM; in [9] it was 2020 nM. In addition, the TGI was determined as 1.24 µM in test [1]; 9.32 µM in test [2]; 24.1 µM in [4]; 3.32 µM in test [5]; 6.92 µM in test [12]; 7.12 µM in test [6]. The values for the TGI in test [11] and in test [9] were 8.88 µM and 5.06 µM, respectively.

Turning to `O=C=Nc1ccc(Cc2ccc(N=C=O)cc2)cc1` (tested in a mixture with another compound), the GI50 in test [1], in [2], in test [4], in test [5], in [12] and in [6] was over 25 µg/mL throughout. In addition, the GI50 in test [11] and in test [9] was over 25 µg/mL in each case. The TGI in test [1], in test [2], in test [4], in test [5], in [12] and in test [6] was over 25 µg/mL in each case. Further, the TGI in [11] and in [9] was over 25 µg/mL each time.

`CCN(C)S(=O)(=O)Nc1cccc(Nc2ncnc3cc(NC(=O)CCl)ccc23)c1Cl`: the GI50 in test [1] was 3760 nM; in test [2], 3.68 µM; in test [4], 1210 nM; in test [5], 3430 nM; in test [12], 9170 nM; in test [6], 1070 nM. Further, the GI50 in [11] was 1010 nM; in test [9], 4360 nM. The TGI in [1] was 7.8 µM; in [2] it was 12.6 µM; in test [4] it was 5.42 µM; in [5], 6.77 µM; in test [12], over 25 µM; in test [6], 4.52 µM. Further, the TGI in [11] was 4.44 µM; in [9] it was 14.3 µM.

Take `CCOC(=O)c1c(C)c2c(n1C)CSc1cc(S(=O)(=O)c3ccccc3)c(=O)[nH]c1-2`: the GI50 in [1] is 17100 nM; in test [2] it was 23.9 µM; in test [4] it was 14800 nM; in test [5] it was 24500 nM; in test [12], 22600 nM; in [6] it was 35100 nM. Besides, the GI50 was 24100 nM in test [11] and 36200 nM in test [9]. In addition, the TGI was 43.6 µM in test [1]; over 100 µM in [2]; over 100 µM in test [4]; over 100 µM in test [5]; over 100 µM in test [12]; over 100 µM in test [6]. In addition, the TGI in test [11] and in [9] was over 100 µM each time.

As for `COc1cc(/C=C2\C(=O)N(c3c(Cl)cccc3Cl)c3ccccc32)cc(OC)c1O`, the GI50 was 905 nM in [1]; 7.91 µM in test [2]; 718 nM in [4]; 531 nM in [5]; 793 nM in test [12]; 702 nM in [6]. Moreover, the GI50 is 303 nM in [11] and 1230 nM in [9]. The TGI in test [1] is 7.24 µM; in test [2] it was 29 µM; in test [4], 11.7 µM; in [5], 17.3 µM; in test [12] it was 13.5 µM; in [6], 16.2 µM. The TGI in test [11] stood at 4.65 µM; in test [9] it was 15.4 µM.

With `O=S(=O)(Nc1ccc(Cl)c(C(F)(F)F)c1)c1ccc(-c2cnc(C3CC3)o2)cc1`, the GI50 in test [1] was 39.3 nM; in test [2], 1.41 µM; in test [4], 1350 nM; in test [5] it was 452 nM; in test [12] it was 163 nM; in test [6] it was 175 nM. Further, the results for the GI50 in [11] and in [9] were 394 nM and 343 nM, respectively. The TGI was 1.9 µM in test [1]; 4.73 µM in test [2]; 5.64 µM in [4]; 2.16 µM in [5]; 2.43 µM in [12]; over 35.5 µM in test [6]. Further, the TGI in test [11] stood at 3.22 µM; in [9], 3.67 µM.

Regarding `COc1ccc2[nH]cc(/C=C3\C(=O)Nc4ccccc43)c2c1`, the GI50 was 9620 nM in [1]; 7.65 µM in test [2]; 2350 nM in [4]; 5430 nM in test [5]; 4970 nM in test [12]; 2920 nM in [6]. Moreover, the GI50 in test [11] was 4620 nM; in test [9], 10200 nM. Besides, the TGI in test [1] worked out at 35.9 µM; in test [2], 35.9 µM; in test [4] it was 6.84 µM; in test [5] it was 18.1 µM; in test [12] it was 37 µM; in test [6], 12.8 µM. In addition, the TGI was found to be 15.9 µM in test [11] and 29.2 µM in [9].
